In patent publication US20100273726A1, “METHICILLIN-RESISTANT STAPHYLOCOCCUS AUREUS ACTIVE METABOLITES ISOLATED FROM LAURUS NOBILIS AND COMBINATIONS THEREOF” (TRITON BIOPHARMA, priority 2009, published 2010):

Key:
[1] = tested on: Methicillin-resistant Staphylococcus aureus; assay: In vivo MRSA assay, thigh infection in neutropenic mice; parameters: species or system Mice (CD-1); conditions: for number of MRSA cfu per gram of muscle tissue: sacrificed after 48 hours; for reduction compared to vehicle control: 48 hours
Protocol: The in vivo antimicrobial activity for the isolated glycosides is represented in FIGS. 2A and 2B. Mice (CD-1) were purchased from Harlan Inc. and acclimatized up to 5 days before use. Food and water were available ad libitum throughout the study. They were rendered neutropenic by two injections of cyclophosphamide (100 mg/kg) given intraperitoneally, one and four days before infection. A volume of 50 uL suspension of Methicillin-resistant Staphylococcus aureus (1.5×10^6 live organisms) was injected intramuscularly (1M) into each of the two rear thighs. Each thigh was considered as an individual data point (total of 4 data points for each treatment). These mice were randomly distributed into the control or treatment groups (n=2/group).
Treatment with the test compound (1) was initiated via the intraperitoneal route 2 hrs after thigh inoculation. Control animals were concurrently administered saline (mock treatment) or vancomycin in the same volume as those receiving compound (1). All animals were sacrificed after 48 hours by CO2 inhalation. Immediately following sacrifice, thigh tissue was collected from the animals, weighed, and homogenized in 5.0 mL of saline. Thigh muscle homogenate was then processed for microbiological assay to determine the number of MRSA cfu per gram of muscle tissue.

[2] = preliminary maximum tolerated dose experiment; type: in vivo; conditions: maximum of 20 mg/kg IP for two days
Protocol: The number of MRSA isolated from vancomycin treated animals was 2.2×10^7 g of tissue, a reduction of 72% compared to vehicle control. Similarly, the number of MRSA recovered after treatment with compound (1) at 3 mg/kg and 15 mg/kg were 2.6×10^7 and 1.8×10^7 respectively, which correspond to a reduction of 67% and 78% as compared to vehicle control. […] To determine the maximum tolerated dose in the preliminary experiment, a maximum of 20 mg/kg of compound (1) was giving IP for two days.

[3] = tested on: methicillin resistant Staphylococcus aureus (MRSA); assay: in vitro antimicrobial evaluation (modified CLSI method); type: cell-based; conditions: IC50 from percent growth versus test concentration
Protocol: The in vitro antimicrobial activity for the isolated glycosides is represented in FIG. 1. A modified version of CLSI (formerly NCCLS) method was used for the in vitro evaluation of test samples. Duplicate samples were transferred to 96-well microplates after diluting with 0.9% saline. The microbial cell suspensions were to give the desired target inocula after addition to the samples. Media and solvent controls were included in each assay. The IC50 was calculated by plotting percent growth versus test concentration.

[4] = tested on: MRSA; conditions: background statement; cited from earlier work
[5] = vancomycin control, dose not given

## C[C@@H]1O[C@@H](Oc2c(-c3ccc(O)cc3)oc3cc(O)cc(O)c3c2=O)[C@H](OC(=O)/C=C/c2ccc(O)cc2)[C@H](OC(=O)/C=C/c2ccc(O)cc2)[C@H]1O [compound 1, kaempferol 3-O-α-L-(2″,3″-di-E-p-coumaroyl)rhamnoside]
[1]; 3 mg/kg intraperitoneal, 2 hrs after inoculation
  number of MRSA cfu per gram of muscle tissue: 2.6×10^7 cfu/g
[1]; 3 mg/kg intraperitoneal
  reduction compared to vehicle control: 67%
[1]; 15 mg/kg intraperitoneal, 2 hrs after inoculation
  number of MRSA cfu per gram of muscle tissue: 1.8×10^7 cfu/g
[1]; 15 mg/kg intraperitoneal
  reduction compared to vehicle control: 78%
[2]
  acute toxicity / untoward effect: No untoward effect

## C[C@@H]1O[C@@H](Oc2c(-c3ccc(O)cc3)oc3cc(O)cc(O)c3c2=O)[C@H](OC(=O)/C=C\c2ccc(O)cc2)[C@H](OC(=O)/C=C\c2ccc(O)cc2)[C@H]1O [compound 4, kaempferol 3-O-α-L-(2″,3″-di-Z-p-coumaroyl)rhamnoside]
[3]
  in vitro activity (rank among the four compounds): most potent

## CN[C@H](CC(C)C)C(=O)N[C@H]1C(=O)N[C@@H](CC(N)=O)C(=O)N[C@H]2C(=O)N[C@H]3C(=O)N[C@H](C(=O)N[C@H](C(=O)O)c4cc(O)cc(O)c4-c4cc3ccc4O)[C@H](O)c3ccc(c(Cl)c3)Oc3cc2cc(c3O[C@@H]2O[C@H](CO)[C@@H](O)[C@H](O)[C@H]2O[C@H]2C[C@](C)(N)[C@H](O)[C@H](C)O2)Oc2ccc(cc2Cl)[C@H]1O [vancomycin, reference compound]
[1]; [5]
  reduction compared to vehicle control: 72%
  number of MRSA cfu per gram of muscle tissue: 2.2×10^7 cfu/g
[4]
  success rate: 35-57%
